Experimental data taken from US20220125897A1, “Antithrombin-III Treatment of Traumatic Brain Injury” (THE TRUSTEES OF THE UNIVERSITY OF PENNSYLVANIA, priority 2020, published 2022).

Assays:
[1] = tested on: CD1 mice, controlled cortical impact (CCI) severe TBI model; experiment: Morris water maze probe trials (long-term memory); assay type: in vivo; conditions: days 10 to 14 post-TBI, CCI mice vs CCI-VEH
Description: (§1) Experimental procedures were conducted with the approval of the University of Pennsylvania Institutional Animal Care and Use Committee. CD1 adult male mice (25-30 g) (Charles River Laboratories, Wilmington, Mass.) were acclimatized in standard housing with water and chow ad libitum for 7 days before experiments after which they underwent sham craniotomy or craniotomy accompanied by controlled cortical impact (CCI), a well-validated severe TBI rodent model (Pascual et al., Am J Surg. 2013;206(6):840-846; Smith et al., J Neurotrauma. 1995; 12(2):169-178). […] Doses were administered 0.5 and 24 hours after CCI (FIG. 1) as determined by previous published reports and the manufacturer's recommendations (ElSaadani et al., J Trauma Acute Care Surg. 2021; 90(2):274-280; Uchiba et al., Thromb Res. 1998; 89(5):233-241; Uchiba et al., Semin Thromb Hemost. 1997; 23(6):583-590). […]
(§2) Learning and memory were evaluated in a Morris water maze (MWM) using a previously published protocol (Vorhees et al., Nat Protoc. 2006; 1(2):848-858; Jacovides et al., J Trauma Acute Care Surg. 2019; 87(3):552-558). […] All swimming trials were conducted and scored by the same operator, at the same time of day on all experiment days incorporating a computerized video-tracking and recording system over the pool to facilitate analysis (Ethovision; Noldus, Leesburg, Va.). […]

[2] = Body weight loss after CCI; assay type: in vivo; conditions: CCI mice, 48 hours after TBI; (W0h-W48h)/W0h×100%; ±SEM
Description: (§3) Procedures received approval from the University of Pennsylvania Institutional Animal Care and Use Committee. CD1 adult male mice (25-30 g) (Charles River Laboratories; Wilmington, Mass.) were acclimated in standard housing with ad libitum water and chow for 5 days before experiments and immediately after recovery from brain injury. Mice underwent controlled cortical impact (CCI) or sham craniotomy (SHAM) and then received one of three agents: 1) subcutaneous enoxaparin (ENX, 1.5 mg/kg) (Winthrop, Sanofi-Aventis; Bridgewater, N.J.); intravenous (femoral vein) pharmaceutical grade antithrombin-III (AT-III, 250 IU/kg, donated by Grifols S.A. (Durham, N.C.); or 3) an equal volume of IV normal saline (0.9% NS, Baxter; Deerfield, Ill.). Doses were administered 0.5 and 24 hours after the CCI (FIG. 1). […]
(§4) Animal body weights (BW) were obtained just before (W0h) as well as 24 and 48 hours after CCI with animal weight loss expressed as a ratio: (W0h-W24h or W48h)/W0h×100%. Murine neurologic function was assessed by the modified Stroke Garcia Neurologic Test (GNT) assessing motor, sensory, reflex, and balance ability at 24 hours and 48 hours after TBI. […]

[3] = tested on: CD1 mice, controlled cortical impact (CCI) severe TBI model; experiment: Garcia Neurological Test (GNT); assay type: in vivo; conditions: injured (CCI) mice, 24 or 48 hour post-TBI; maximum 18 points; ±SEM
Description: as §3, §4

[4] = tested on: CD1 mice, controlled cortical impact (CCI) severe TBI model; experiment: Morris water maze spatial learning trials; assay type: in vivo; conditions: ±SEM
Description: as §1, with “12(2):169-178). Mice were anesthetized with intraperitoneal ketamine (Hospira, Lake Forest, Ill.), xylazine (Akorn, Decatur, Ill.), and acepromazine (Boehringer Ingelheim, St. Joseph, Mo.) (100, 10, 1 mg/kg, respectively) followed by subcutaneous bupivacaine (0.5 mg/mL) for longer-term analgesia. After creation of a left-sided, 4-mm craniotomy between bregma and lambda sutures, the exposed left parietotemporal cortex was injured via a controlled cortical impactor (AMS201; AmScien Instruments, Richmond, Va.).” for “12(2):169-178).”
as §2
On postcraniotomy days 9 to 13, daily spatial learning trials evaluated the animals' ability to use environmental visual cues to locate and reach the platform. […]

[5] = tested on: CD1 mice, controlled cortical impact (CCI) severe TBI model; experiment: Pial intravital microscopy: FITC-albumin leakage (microvascular permeability); assay type: in vivo; conditions: for Cerebrovascular FITC-albumin leakage: 48 hours after CCI, doses 0.5 and 24 hours after CCI, ±SEM
Description: (§5) Procedures received approval from the University of Pennsylvania Institutional Animal Care and Use Committee. CD1 adult male mice (25-30 g) (Charles River Laboratories; Wilmington, Mass.) were acclimated in standard housing with ad libitum water and chow for 5 days before experiments and immediately after recovery from brain injury. Mice underwent controlled cortical impact (CCI) or sham craniotomy (SHAM) and then received one of three agents: 1) subcutaneous enoxaparin (ENX, 1.5 mg/kg) (Winthrop, Sanofi-Aventis; Bridgewater, N.J.); intravenous (femoral vein) pharmaceutical grade antithrombin-III (AT-III, 250 IU/kg, donated by Grifols S.A. (Durham, N.C.); or 3) an equal volume of IV normal saline (0.9% NS, Baxter; Deerfield, Ill.). Doses were administered 0.5 and 24 hours after the CCI (FIG. 1).
(§6) Seventy-one (71) mice were randomly assigned to one of six groups: 1) sham craniotomy and vehicle (VH, 0.9% normal saline, Baxter Healthcare Corporation; Deerfield, Ill.), (SHAM +VEH, n=9); 2) sham craniotomy and ENX (SHAM+ENX, n=8); 3) sham craniotomy and AT-III (SHAM+AT-III, n=9); 4) TBI and vehicle (CCI+VEH, n=19); TBI and ENX (CCI+ENX, n=13); and 6) TBI and AT-III (CCI+AT-III, n=13).
CCI was used to replicate TBI through a well-validated rodent model (16, 17). Briefly, on day 1, mice were anesthetized with intraperitoneal ketamine (Hospira; Lake Forest, Ill.), xylazine (Alcorn; Decatur, Ill.), and acepromazine (Boehringer Ingelheim; St. Joseph, Mo.) (KXA: 100, 10, 1 mg/kg, respectively) and place prone in a stereotactic device. After scalp exposure, a left-sided 4-mm craniotomy was created between bregma and lambda structures using a dental drill (Henry Schein; Melville, N.Y.) without violating the dura. […]
Footage captured under the 488 nm filter was evaluated for fluorescence intensity from FITC-labelled albumin measured in three distinct regions within the vessel (venular intensity) and outside the vessel walls (perivenular intensity) (FIGS. 3A and 3B). […]

[6] = tested on: CD1 mice, controlled cortical impact (CCI) severe TBI model; experiment: Morris water maze cued learning trials; assay type: in vivo
Description: Experimental procedures were conducted with the approval of the University of Pennsylvania Institutional Animal Care and Use Committee. CD1 adult male mice (25-30 g) (Charles River Laboratories, Wilmington, Mass.) were acclimatized in standard housing with water and chow ad libitum for 7 days before experiments after which they underwent sham craniotomy or craniotomy accompanied by controlled cortical impact (CCI), a well-validated severe TBI rodent model (Pascual et al., Am J Surg. 2013;206(6):840-846; Smith et al., J Neurotrauma. 1995; 12(2):169-178). Mice were anesthetized with intraperitoneal ketamine (Hospira, Lake Forest, Ill.), xylazine (Akorn, Decatur, Ill.), and acepromazine (Boehringer Ingelheim, St. Joseph, Mo.) (100, 10, 1 mg/kg, respectively) followed by subcutaneous bupivacaine (0.5 mg/mL) for longer-term analgesia. After creation of a left-sided, 4-mm craniotomy between bregma and lambda sutures, the exposed left parietotemporal cortex was injured via a controlled cortical impactor (AMS201; AmScien Instruments, Richmond, Va.). Controlled cortical impact settings (3-mm-diameter impactor tip, impact velocity of 6 m/s, and cortical deformation depth of 1 mm) replicated severe TBI (Smith et al., J Neurotrauma. 1995; 12(2):169-178). Rodents were then randomly allocated to receive either: (1) intravenous (via femoral vein) pharmaceutical grade AT-III (250 IU/kg, donated by Grifols S. A., Durham, N.C.) or (2) an equal volume of normal saline IV (0.9% NS; Baxter; Deerfield, Ill.) as a vehicle (VEH). Doses were administered 0.5 and 24 hours after CCI (FIG. 1) as determined by previous published reports and the manufacturer's recommendations (ElSaadani et al., J Trauma Acute Care Surg. 2021; 90(2):274-280; Uchiba et al., Thromb Res. 1998; 89(5):233-241; Uchiba et al., Semin Thromb Hemost. 1997; 23(6):583-590).
Fifteen mice (ElSaadani et al., J Trauma Acute Care Surg. 2021; 90(2):274-280) were randomized into three groups: (1) sham craniotomy (no CCI) plus VEH (SHAM, n=5), (2) TBI and VEH (CCI-VEH, n=5), and (3) TBI and AT-III (CCI−AT-III, n=5).
as §2, with “87(3):552-558). After a recovery period of 6 days, each animal underwent daily. MWM trials of learning and memory for 9 consecutive days.” for “87(3):552-558).”

[7] = tested on: CD1 mice, controlled cortical impact (CCI) severe TBI model; experiment: Pial intravital microscopy: in vivo LEU/EC interactions; conditions: pial penumbral microcirculation, 48 hours after CCI, doses 0.5 and 24 hours after CCI, ±SEM
Description: as §5, §6
(§7) CCI was used to replicate TBI through a well-validated rodent model (16, 17). Briefly, on day 1, mice were anesthetized with intraperitoneal ketamine (Hospira; Lake Forest, Ill.), xylazine (Alcorn; Decatur, Ill.), and acepromazine (Boehringer Ingelheim; St. Joseph, Mo.) (KXA: 100, 10, 1 mg/kg, respectively) and place prone in a stereotactic device. After scalp exposure, a left-sided 4-mm craniotomy was created between bregma and lambda structures using a dental drill (Henry Schein; Melville, N.Y.) without violating the dura.
In vivo assessment of cerebral microcirculation using pial intravital microscopy was performed 48 hours after CCI as described previously, as this is the optimal time to observe peak leukocyte mobilization to the BBB penumbra after brain injury. Under KXA anesthesia, the right jugular vein was cannulated and a second 2.5 mm craniotomy was created immediately anterior to the first and covered with a 5 mm coverslip (Fisher Scientific; Waltham, Mass.). […]
Video data captured at 590 nm λ were imported into analysis software (NIS-Elements, Nikon Instruments; Melville, N.Y.) and LEU/EC interactions were counted by a blinded observer quantifying the following parameters: 1) LEU transit: mean number of labelled EU crossing a 100 μm long venular segment in 60 seconds; and 2) LEU adhesion: number of LEU stationary for at least 30 seconds during the recording period. Fluorescently labelled spherical cells measuring 7 to 12 μm were counted as LEU and interactions were reported as the number of cells/100 μm per minute (FIGS. 2A and 2B).

[8] = tested on: CD1 mice, controlled cortical impact (CCI) or sham craniotomy; experiment: Brain water content (brain edema, wet-to-dry ratio); assay type: in vivo; conditions: for Contralateral (%) Mean brain water content / Contralateral (%) Median brain water content / Ipsilateral (%) Mean brain water content / Ipsilateral (%) Median brain water content / Ratio (ipsi/contra) brain water content: 48 hours after CCI; for cerebral edema as compared to CCI+VEH: 48 hours, p>0.05
Description: as §5, §6, §7
Forty-eight hours after CCI, mice were sacrificed and excised brains were separated into injured (ipsilateral) and uninjured (contralateral) hemispheres. Wet weight (WW) was immediately assessed. Dry weight (DW) was assessed after 72 hours of dehydration at 70° C. Tissue water content was calculated using wet-to-dry ratios: % water content=100×(WW−DW)/WW.

## antithrombin-III [AT-III]
[1]
  cognitive recovery: memory: not memory
[2]
  Body weight loss: 8.4±1%
[3]
  GNT score (stroke functional recovery score): 13.1±0.3
[4]; all 5 days of spatial learning trials, CCI mice
  mean group cumulative swimming time: 17.6 ± 1.5 s
[4]; day 13, last day of spatial learning trials, CCI mice
  swimming time (time to reach platform): 17.6 ± 3.9 s
[4]; spatial learning trials, days 9 to 13, CCI mice
  overall swim distance: 306.9±27.9 cm
[5]
  Cerebrovascular FITC-albumin leakage: 41.9±2.8%
[5]; pial vessels, vs untreated injured
  decrease of macromolecular leakage (blood brain barrier integrity): more than 25%
[6]; cued learning trials, compared with SHAM
  time to reach the exposed platform, course over days: eventually reached SHAM times by day 7
[6]; cued learning trials, days 6-8 post-TBI, ±SEM
  swimming velocity: 28.4 ± 1.1 cm/s
[6]; cued learning trials, ±SEM
  mean time to reach the platform: 20.1 ± 3.1 s
[6]; throughout days 6 to 8 post-TBI, ±SEM
  cumulative cued learning (overall mean group time to reach the platform): 20.3 ± 2.1 s
[7]
  LEU adhesion: 3.2±0.5 LEUs/100 um/min
  LEU transit: 24.8±2.1 LEUs/100 um/min
[8]
  Contralateral (%) Mean brain water content: 75.12%
  Contralateral (%) Median brain water content: 77.7%
  Ipsilateral (%) Mean brain water content: 77.64%
  Ipsilateral (%) Median brain water content: 78.6192%
  Ratio (ipsi/contra) brain water content: 1.033
  cerebral edema as compared to CCI+VEH: did not significantly reduce cerebral edema

## enoxaparin [ENX, reference compound]
[3]
  GNT score (stroke functional recovery score): 12.4±0.4
[5]
  Cerebrovascular FITC-albumin leakage: 49.1±2.3%
[7]
  LEU adhesion: 3.5±0.8 LEUs/100 um/min
  LEU transit: 24.9±2.8 LEUs/100 um/min
[8]
  Contralateral (%) Mean brain water content: 77.26%
  Contralateral (%) Median brain water content: 77.38%
  Ipsilateral (%) Mean brain water content: 78.3674%
  Ipsilateral (%) Median brain water content: 79.03%
  Ratio (ipsi/contra) brain water content: 1.014
  cerebral edema as compared to CCI+VEH: did not significantly reduce cerebral edema
